Measured values taken from PMC8877061, “Antifungal and Antibiofilm Activity of Cyclic Temporin L Peptide Analogues against Albicans and Non-Albicans Candida Species” (Pharmaceutics, 2022).
“Also recorded” adds a separate entry of the source. Positions of bridges follow the written chain, without caps; N, C: chain ends. Non-standard residues stand in square brackets, D forms with d. Residues, ends and D or L forms follow the SMILES beside them. Triazole bridges read from a SMILES are 1,4-linked. Lys(N3) = [N-]=[N+]=NCCCC[C@H](N)C(=O)O; Pra = C#CC[C@H](N)C(=O)O

Columns and labels:
[1] = Peptide aggregation by Thioflavin T fluorescence in LUVs; format: physicochemical; details: LUVs PE/PC/PI/ergosterol 0.1 mM, Tris-HCl/NaCl pH 7.4, 25 °C, titrated 5-50 μM peptide
Method: The aggregation in the liposomes mimicking fungal membranes (5:4:1:2, w/w/w/w) was evaluated using Thioflavin T (ThT) as a dye probe. The lipid film was prepared by dissolving lipids in chloroform to have a final lipid concentration of 0.1 mM. Then, the solvent was removed under a nitrogen gas stream, and the film was freeze-dried overnight. Lipid films were hydrated with 100 mM NaCl, 10 mM Tris-HCl and a […] ThT buffer at a pH of 7.4 and then treated as described above to obtain LUVs. The LUVs were titrated with a peptide concentration of 5, 10, 15, 20, 30 and 50 μM, and ThT fluorescence was recorded before and after the addition of the peptide using the Varian Cary Eclipse fluorescence spectrometer at 25 °C. The samples were excited at 450 nm (slit width: 10 nm), and the fluorescence emission was recorded at 482 nm (slit width: 5 nm). Aggregation was quantified according to the equation %A = (Ff − F0)/(Fmax − F0) × 100, where Ff indicates the value of fluorescence after the peptide addition, F0 is the initial fluorescence before the addition of the peptide and Fmax is the fluorescence maximum obtained immediately after the peptide addition.

[2] = Circular dichroism in liposomes mimicking fungal membranes; format: physicochemical; details: SUVs PE/PC/PI/ergosterol
Method: The circular dichroism spectra of the selected peptides (3, 7, 15 and 16) were recorded in small unilamellar vesicles (SUVs) composed of PE/PC/PI/Ergosterol (5:4:1:2, w/w/w/w, final lipid concentration = 0.01 mM) and DOPC/Chol (70:30, ratio in moles, final lipid concentration = 0.1 mM), between 190 and 260 nm on a JASCO J-710 CD spectropolarimeter at 25 °C using quartz cells with a 0.1-cm path length. The SUVs were prepared as reported in the following protocol. Once the lipid films were prepared as described above, they were hydrated with a phosphate buffer (5 mM, pH 7.4) (DOPC:Chol) or water (PE/PC/PI/Ergosterol) for 1 h and sonicated for 40 min. […] We accumulated the data three times, and all spectral data were subtracted from the background. Each spectrum converted the signal to the mean molar ellipticity, and we calculated the ratio of the ellipticities at 222 and 208 nm to discriminate between the monomeric and oligomeric states of the helices. The helix content was calculated as follows: [θ]222/(−40,000[1 − 2.5/n)], where [θ]222 is the ellipticity measurement at 222 nm and n is the number of amino acid residues.

[3] = tested on: C. albicans preformed biofilm; test: Eradication of preformed biofilm (XTT); format: cell-based; details: peptide 6.25 μM, 24-h old biofilm, 24 h treatment
Method: (§1) C. albicans ATCC 90028, C. auris DSM 21092, C. glabrata DSM 11226, C. tropicalis DSM11951 and C. parapsilosis DSM 4874 grown on YPD Agar (1% w/v yeast extract, 2% w/v peptone, 2% w/v glucose, 1.5% Agar) were cultured in Tryptone soya broth supplemented with 0.1% glucose for 16–18 h at 37 °C, washed twice using sterile phosphate-buffered saline (PBS) and standardized to […] as required for the experiments. RPMI1640 medium (Thermo Fisher Scientific, Waltham, MA, USA) buffered to a pH of 7.0 with 0.165 M MOPS was used for growing the biofilms of all Candida species.
(§2) Biofilm inhibition and eradication assays were performed as previously described in [37]. […] After the incubation period, non-adherent cells were detached by washing each sample three times in sterile PBS. […] The total biomass was quantified by a crystal violet assay for the inhibition. The vital biomass was quantified by XTT for test eradication by using the tetrazolium 2,3-bis (2-methoxy-4-nitro-5 sulfophenyl)-5-[(phenylamine) carbonyl]-2H-hydroxide reduction assay (XTT) (Sigma-Aldrich, St. Luis, MO, USA) according to the manufacturer’s instructions. The absorbance was measured spectrophotometrically at 492 nm. The percentages of inhibition or eradication were calculated as follows: % biofilm reduction = Abs control − Abs sample/Abs control × 100.

[4] = tested on: C. parapsilosis preformed biofilm; test: Eradication of preformed biofilm (XTT); format: cell-based; details: peptide 6.25 μM, 24-h old biofilm, 24 h treatment
Method: as §1, §2

[5] = tested on: C. albicans ATCC 90028 biofilms; test: Eradication of preformed biofilm, bright-field microscopy; format: cell-based; details: peptide 12.5 μM
Method: Biofilm inhibition and eradication assays were performed as previously described in [37]. […] After the incubation period, non-adherent cells were detached by washing each sample three times in sterile PBS. Then, the samples were fixed, and the biofilms were stained with a 0.1% solution of crystal violet. To test the effect against the established biofilm, fresh growth medium containing peptides at the same concentrations was added in the preformed 24-h old biofilms and incubated for another 24 h. The total biomass was quantified by a crystal violet assay for the inhibition. The vital biomass was quantified by XTT for test eradication by using the tetrazolium 2,3-bis (2-methoxy-4-nitro-5 sulfophenyl)-5-[(phenylamine) carbonyl]-2H-hydroxide reduction assay (XTT) (Sigma-Aldrich, St. Luis, MO, USA) according to the manufacturer’s instructions. The absorbance was measured spectrophotometrically at 492 nm. The percentages of inhibition or eradication were calculated as follows: % biofilm reduction = Abs control − Abs sample/Abs control × 100.
Optical microscopy images were acquired by using a Leica AF6000LX-DM6M-Z microscope (Leica Microsystems, Mannheim, Germany) controlled by LAS-X (Leica Application Suite; rel. 3.0.13) software and equipped with a Leica Camera DFC7000T. Images were acquired by focusing on the Petri dish surface with a 50× objective in a bright field. […]

In the case of `CC(C)C[C@H](NC(=O)[C@@H]1CCCCn2cc(nn2)C[C@H](NC(=O)[C@H](CCCCN)NC(=O)[C@H](CO)NC(=O)[C@H](Cc2ccccc2)NC(=O)[C@H](Cc2c[nH]c3ccccc23)NC(=O)[C@@H]2CCCN2C(=O)[C@@H](NC(=O)[C@@H](N)Cc2ccccc2)C(C)C)C(=O)N[C@H](CC(C)C)C(=O)NCC(=O)N[C@@H](CCCNC(=N)N)C(=O)N1)C(N)=O` [compound 7] (H-FVPWFSK[Pra][dL]GR[Lys(N3)]L-NH2; triazole 8-12; N-terminus assumed), the “concentration of complete aggregation (ThT fluorescence)” value [1] is reported as 30 µM.

In the case of `CC[C@H](C)[C@H](NC(=O)[C@H](CCCNC(=N)N)NC(=O)[C@@H]1CSSC[C@H](NC(=O)[C@H](Cc2ccccc2)NC(=O)[C@H](Cc2c[nH]c3ccccc23)NC(=O)[C@@H]2CCCN2C(=O)[C@@H](NC(=O)[C@@H](N)Cc2ccccc2)C(C)C)C(=O)N[C@@H](CCCCN)C(=O)N[C@@H](Cc2ccccc2)C(=O)N[C@H](CC(C)C)C(=O)N1)C(=O)N[C@@H](CC(C)C)C(N)=O` [compound 16] (H-FVPWFCKF[dL]CRIL-NH2; disulfide 6-10; N-terminus assumed), the “conformation by CD in fungal membrane-like SUVs, 10 μM” value ([2]; peptide 10 μM) is reported as “random coil conformation; also recorded: random coil structure” and the “conformation by CD in fungal membrane-like SUVs, 50 μM” value ([2]; peptide 50 μM) is reported as “α-helical molecular aggregates”.

In the case of `CC[C@H](C)[C@H](NC(=O)[C@H](CCCNC(=N)N)NC(=O)[C@@H]1CCC(=O)NCCCC[C@H](NC(=O)[C@H](Cc2ccccc2)NC(=O)[C@H](Cc2c[nH]c3ccccc23)NC(=O)[C@@H]2CCCN2C(=O)[C@@H](NC(=O)[C@@H](N)Cc2ccccc2)C(C)C)C(=O)N[C@@H](CCCCN)C(=O)N[C@@H](Cc2ccccc2)C(=O)N[C@H](CC(C)C)C(=O)N1)C(=O)N[C@@H](CC(C)C)C(N)=O` [compound 3] (H-FVPWFKKF[dL]ERIL-NH2; lactam 6-10; N-terminus assumed), the “eradication of preformed biofilm, C. albicans” value [3] is reported as 50%, the “eradication of preformed biofilm, C. parapsilosis” value [4] is reported as 50% and the “eradication effect on preformed C. albicans biofilms by optical microscopy” value [5] is reported as “effective in the eradication of biofilm”.
